Consider 37 compounds from patent publication US7332495B2 (priority 2002, dated 2008).

Structures are written as SMILES. Counter-ions that a name gives are not always drawn.

In data set [1] the test system is Kunming mice. The data set can be described thus: Sedation: spontaneous activities recorded with alternating current tube. It counts as in vivo. To be noted: i.p. 20 mg/Kg, spontaneous activities; for inhibition in vivo at 20 mg/kg: Mus musculus, ip. As to the method:
Kunming mice were used, with a male-female ratio of 50-50%. […] After 30 minutes, acetic acid (0.7%, […] i.p.) was injected and the number of writhes was observed during a 5-minute period after acetic acid administration. The inhibition ratio of the writhing threshold was calculated. The alternating current tube is used to record the spontaneous activities for measuring sedation.

The subject of data set [2] is Kunming mice. The data set can be described thus: Mice writhing model (acetic acid). The format is in vivo. To be noted: i.p. 20 mg/Kg, acetic acid 0.7% i.p. after 30 minutes, writhes in 5 minutes; for inhibition in vivo at 20 mg/kg: Mus musculus, ip, read-out: Analgesia (inhibition ratio of writhing). Here is the method: Kunming mice were used, with a male-female ratio of 50-50%. The test compound is administered i.p. (20 mg/Kg body weight) to the test groups, and physiological saline is administered P.O. (20 ml/Kg body weight) to the control group. After 30 minutes, acetic acid (0.7%, […] i.p.) was injected and the number of writhes was observed during a 5-minute period after acetic acid administration. The inhibition ratio of the writhing threshold was calculated. The alternating current tube is used to record the spontaneous activities for measuring sedation.
Two species of animals (mice and rats) and four types of pain testing models (i.p. 0.7% acetic acid, s.c. 5% formalin, hot plate 55° C., focused radiant heat) were used.
(In general: Writhing tests count abdominal constrictions after an irritant is injected.)

Consider `Cc1ccc(C(=O)CN2CCN([C@H](C)c3ccccc3)CC2)cc1` [IV-41, N^1—(R-1-phenylethyl)-N^4-(4-methylphenacyl)piperazine], for which the figures for the inhibition in vivo at 20 mg/kg in the data set with Kunming mice [1] and in the data set with Kunming mice [2] were 72% and 60%, respectively. As for `Cc1ccc(C(=O)CN2CCN(C(C)c3ccccc3)CC2)cc1` (centres unmarked) (as salt: hydrochloride) [IV-40, N^1-(1-phenylethyl)-N^4-(4-methylphenacyl)piperazine], the melting point lay in the range of 230 to 232 °C.

As for `O=C(CCN1CCN(Cc2ccccc2)CC1)c1ccccc1` (as salt: hydrochloride) [IV-17, N^1-benzyl-N^4-(2-benzoylethyl)piperazine], the melting point was 230 to 232 °C. `CC(c1ccc([N+](=O)[O-])cc1)N1CCN(CC(=O)c2ccccc2)CC1` (centres unmarked) [IV-60, N^1-[1-(4-nitrophenyl)ethyl]-N^4-phenacyl piperazine]: the inhibition in vivo at 20 mg/kg amounted to 66% in the data set with Kunming mice [1] and 37% with Kunming mice [2]. For `CC(=O)Nc1ccc(C(=O)CN2CCN(Cc3ccc([N+](=O)[O-])cc3)CC2)cc1` (as salt: hydrochloride) [IV-18, N^1-(4-nitrobenzyl)-N^4-[(4-acetamido)phenacyl]piperazine], the melting point is 228 to 230 °C.

In turn, `COc1ccc(CN2CCN(C(C)C(=O)c3ccc4c(Cl)c(OC)ccc4c3)CC2)cc1` (centres unmarked) (as salt: hydrochloride) [IV-31, N^1-(4-methoxybenzyl)-N^4-[1-(5-chloro-6-methoxy-2-naphthoyl)ethyl]piperazine] displayed a melting point of 222 to 224 °C. `CC(=O)Nc1ccc(CN2CCN(CC(=O)c3ccccc3)CC2)cc1` (as salt: hydrochloride) [IV-21, N^1-(4-acetamidobenzyl)-N^4-phenacyl piperazine]: the melting point fell in the range of 238 to 240 °C. As to `O=C(CN1CCN(Cc2ccc3ccccc3c2)CC1)c1ccccc1` [IV-59, N^1-(2-naphthalenylmethyl)-N^4-phenacyl piperazine], the results for the inhibition in vivo at 20 mg/kg with Kunming mice [1] and with Kunming mice [2] were 0% and 45%, respectively. Taken in the same sequence, the figures for `COc1ccc2cc(C(=O)C(C)N3CCN(C(C)c4ccccc4)CC3)ccc2c1Cl` (centres unmarked) [IV-43, N^1-(1-phenylethyl)-N^4-[1-(5-chloro-6-methoxy-2-naphthoyl)ethyl]piperazine] were 4% and 42%. Regarding `O=C(CN1CCN(Cc2ccccc2)CC1)c1ccccc1` [IV-1, N^1-benzyl-N^4-phenacyl piperazine], the figures for the inhibition in vivo at 20 mg/kg in the data set on Kunming mice [1] and in the data set with Kunming mice [2] were 65.6% and 68.2%, respectively. With `CC(=O)Nc1ccc(C(=O)CN2CCN(Cc3ccc([N+](=O)[O-])cc3)CC2)cc1` [IV-18, N^1-(4-nitrobenzyl)-N^4-[(4-acetamido)phenacyl]piperazine], the inhibition in vivo at 20 mg/kg amounted to 65% in the data set with Kunming mice [1] and 64% in the data set on Kunming mice [2]. `CC(c1ccccc1)N1CCN(CC(=O)c2ccccc2)CC1` (centres unmarked) (as salt: hydrochloride) [IV-37, N^1-(1-phenylethyl)-N^4-phenacyl piperazine]: the melting point is 242 °C (dec.). For the compound `CC(C(=O)c1ccccc1)N1CCN(Cc2ccc(N)cc2)CC1` (centres unmarked) [IV-13, N^1-(4-aminobenzyl)-N^4-(1-benzoylethyl)piperazine], the inhibition in vivo at 20 mg/kg with Kunming mice [1] came to 86%; with Kunming mice [2], 100%.

As for `CCOC(=O)C(c1ccccc1)N1CCN(CC(=O)c2ccccc2)CC1` (centres unmarked) [IV-5, N^1-[(1-ethoxy-oxo-methyl)benzyl]-N^4-phenacyl piperazine], in the data set with Kunming mice [1], the Sedation is on record as 44%. In addition, the “Analgesia (inhibition ratio of writhing)” value in the data set with Kunming mice [2] stood at 14%. In the data set on Kunming mice [1], `C[C@@H](c1ccccc1)N1CCN(CC(=O)c2ccccc2)CC1` [IV-39, N^1-(S-1-phenylethyl)-N^4-phenacyl piperazine] came in with a Sedation of 35%. Moreover, the “Analgesia (inhibition ratio of writhing)” value with Kunming mice [2] is on record as 42%.

For the compound `O=C(CN1CCN(Cc2cccc3ccccc23)CC1)c1ccccc1` [IV-58, N^1-(1-naphthalenylmethyl)-N^4-phenacyl piperazine], the Sedation in the data set with Kunming mice [1] was 32%. For the same compound, the “Analgesia (inhibition ratio of writhing)” value in the data set with Kunming mice [2] is 49%.

As to `COc1ccc(C(=O)CN2CCN(CCC(O)c3ccccc3)CC2)cc1` (centres unmarked) [IV-22, N^1-(3-phenylpropyl-3-ol)-N^4-(4-methoxyphenacyl)piperazine], in the data set with Kunming mice [1], the Sedation is listed as 84%. For the same compound, the “Analgesia (inhibition ratio of writhing)” value in the data set with Kunming mice [2] is given as 100%. Consider `O=C(CN1CCN(Cc2ccc(F)cc2)CC1)c1ccc(Cl)cc1` [IV-20, N^1-(4-fluorobenzyl)-N^4-(4-chlorophenacyl)piperazine], for which the inhibition in vivo at 20 mg/kg is 60% with Kunming mice [1] and 45% with Kunming mice [2]. On the same counts, the results for `COc1ccc(CN2CCN(C(C)C(=O)c3ccc4c(Cl)c(OC)ccc4c3)CC2)cc1` (centres unmarked) [IV-31, N^1-(4-methoxybenzyl)-N^4-[1-(5-chloro-6-methoxy-2-naphthoyl)ethyl]piperazine] are 7% and 45%. Take `O=C(CN1CCN(Cc2ccccc2)CC1)c1ccc([N+](=O)[O-])cc1` [IV-9, N^1-benzyl-N^4-(4-nitrophenacyl)piperazine]: the inhibition in vivo at 20 mg/kg in the data set with Kunming mice [1] is 32%; with Kunming mice [2], 74%.

Take `O=C(CN1CCN(Cc2ccccc2)CC1)c1ccc(Cl)cc1` [IV-6, N^1-benzyl-N^4-(4-chlorophenacyl)piperazine]: the inhibition in vivo at 20 mg/kg turned out to be 73% in the data set on Kunming mice [1] and 43% in the data set with Kunming mice [2].

Take `COc1ccc(C(=O)CN2CCN(Cc3ccccc3)CC2)cc1` [IV-8, N^1-benzyl-N^4-(4-methoxyphenacyl)piperazine]: the inhibition in vivo at 20 mg/kg in the data set on Kunming mice [1] turned out to be 64%; with Kunming mice [2], 39%. As to `O=C(CN1CCN(Cc2ccc([N+](=O)[O-])cc2)CC1)NCc1ccccc1` [IV-62, N^1-(4-nitrobenzyl)-N^4-[2-(benzylamino)-2-oxo-ethyl]piperazine], the inhibition in vivo at 20 mg/kg in the data set on Kunming mice [1] worked out at 42%; in the data set on Kunming mice [2], 64%. `Cc1ccc(C(=O)CN2CCN([C@@H](C)c3ccccc3)CC2)cc1` [IV-42, N^1-(S-1-phenylethyl)-N^4-(4-methylphenacyl)piperazine] had a Sedation with Kunming mice [1] of 0%. Besides, the “Analgesia (inhibition ratio of writhing)” value in the data set on Kunming mice [2] was found to be 44%. For `O=C(CN1CCN(Cc2ccc([N+](=O)[O-])cc2)CC1)c1ccccc1` [IV-4, N^1-(4-nitrobenzyl)-N^4-phenacyl piperazine], the inhibition in vivo at 20 mg/kg in the data set on Kunming mice [1] came out at 39.6%; in the data set on Kunming mice [2], 93.2%. In the case of `O=C(CN1CCN(Cc2ccc(Cl)cc2)CC1)c1ccccc1` [IV-3, N^1-(4-chlorobenzyl)-N^4-phenacyl piperazine], the figures for the inhibition in vivo at 20 mg/kg with Kunming mice [1] and with Kunming mice [2] were 70.8% and 56.6%, respectively. For the compound `C[C@H](c1ccccc1)N1CCN(CC(=O)c2ccccc2)CC1` [IV-38, N^1—(R-1-phenylethyl)-N^4-phenacyl piperazine], the inhibition in vivo at 20 mg/kg with Kunming mice [1] was determined as 99%; with Kunming mice [2], 51%.

With `CC(c1ccc(F)cc1)N1CCN(CC(=O)c2ccccc2)CC1` (centres unmarked) [IV-24, N^1-[1-(4-fluorophenyl)ethyl]-N^4-phenacyl piperazine], the inhibition in vivo at 20 mg/kg in the data set on Kunming mice [1] worked out at 47%; in the data set with Kunming mice [2], 64%. On the same counts, the results for `CC(C(=O)c1ccccc1)N1CCN(Cc2ccc([N+](=O)[O-])cc2)CC1` (centres unmarked) [IV-47, N^1-(4-nitrobenzyl)-N^4-(1-benzoylethyl)piperazine] are 26.4% and 28.8%. `O=C(CN1CCN(Cc2cccnc2)CC1)c1ccccc1` [IV-11, N^1-(3-pyridylmethyl)-N^4-phenacyl piperazine]: the inhibition in vivo at 20 mg/kg in the data set on Kunming mice [1] was 91%; in the data set on Kunming mice [2], 86%. Taken in the same sequence, the figures for `COc1ccc([N+](=O)[O-])cc1CN1CCN(CC(=O)c2ccccc2)CC1` [IV-23, N^1-(2-methoxy-5-nitrobenzyl)-N^4-phenacyl piperazine] were 96% and 87%.

Regarding `O=C(CCN1CCN(Cc2ccccc2)CC1)c1ccccc1` [IV-17, N^1-benzyl-N^4-(2-benzoylethyl)piperazine], the inhibition in vivo at 20 mg/kg was determined as 75% with Kunming mice [1] and 45% in the data set on Kunming mice [2].

As for `Nc1ccc(C(=O)CN2CCN(Cc3ccccc3)CC2)cc1` [IV-16, N^1-benzyl-N^4-(4-aminophenacyl)piperazine], the inhibition in vivo at 20 mg/kg with Kunming mice [1] was 51%; with Kunming mice [2] it was 63%.

With `COc1ccc(OC)c(CN2CCN(CC(=O)c3ccccc3)CC2)c1` [IV-15, N^1-(2,5-dimethoxybenzyl)-N^4-phenacyl piperazine], the inhibition in vivo at 20 mg/kg in the data set on Kunming mice [1] is 93%; in the data set with Kunming mice [2] it was 80%. Turning to `O=C(CN1CCN(Cc2ccccc2)CC1)c1ccc2ccccc2c1` [IV-7, N^1-benzyl-N^4-(2-naphthoylmethyl)piperazine], the inhibition in vivo at 20 mg/kg in the data set with Kunming mice [1] stood at 43%; with Kunming mice [2], 25%. On the same counts, the results for `CCC(c1ccccc1)N1CCN(CC(=O)c2ccccc2)CC1` (centres unmarked) [IV-61, N^1-(1-phenylpropyl)-N^4-phenacyl piperazine] are 56% and 6%. Taken in the same sequence, the figures for `CC(=O)Nc1ccc(C(=O)CN2CCN(Cc3ccccc3)CC2)cc1` [IV-55, N^1-benzyl-N^4-(4-acetamidophenacyl)piperazine] were 52% and 21%.

For orientation: melting point means the temperature of the solid-liquid transition.
